Assays:
Format in all cases: cell-based
[1] = system: MDA-MB-231 breast cancer cells; assay: MTT cytotoxicity assay, MDA-MB-231; details: MDA-MB-231, MTT; for IC50: mean of three independent experiments ± SD, read-out: IC50 Value MDA-MB-231
Method: (§1) All newly synthetic compounds were tested for cytotoxicity using a six-dose MTT colorimetric assay on three cancer cell lines; namely, breast cancer cells (MDA-MB-231), colorectal adenocarcinoma cells (HT-29) and renal cancer cells (U-937). […] However, renal cancer cells (U-937) were discovered to be the least sensitive.
(§2) Using a six-dose MTT colorimetric assay, all new synthetic compounds were tested for cytotoxicity against three cancer cell lines: MDA-MB-231 breast cancer cells, HT-29 colorectal adenocarcinoma cells, and U-937 renal cancer cells. […] These cell lines were supplied by ATCC (American Type Culture Collection) via the Holding company for biological products and vaccines (VACSERA, Cairo, Egypt). The reference control used was Methotrexate. Detailed descriptions of the MTT colorimetric assay’s protocol can be found in the Supplementary file.
(§3) 1.1.In-vitro cytotoxicity screening
(§4) Using a six-dose MTT colorimetric assay, allnew synthetic compounds were tested for cytotoxicity against three cancer cell lines: MDA-MB-231 breast cancer cells,HT-29 colorectal adenocarcinoma cells, and U-937 renal […]
(§5) The cell lines were supplied by ATCC (American Type Culture Collection). The reference control used was Methotrexate. The cytotoxic activities of the examined compounds were quantified by inoculating a 96-well tissue culture plate with 1 X 10^5 cells / mL (100 uL/well) and incubating it at 37°C for 24 hours to develop a complete monolayer sheet. After forming a confluent sheet of cells, the growth medium was decanted from 96-well microtiter plates, and the cell monolayer was washed twice with wash media. Two-fold dilutions of tested samples were made in RPMI medium with 2% serum (maintenance medium), and 0.1 mL of each dilution was tested in different wells, with three wells serving as controls and receiving only maintenance medium. Following that, the plate was incubated at 37°C and examined. Cells were investigated for any physical signs of toxicity, such as partial or complete monolayer loss, rounding, shrinkage, or cell granulation. MTT solution was prepared (5mg/ml in PBS) (BIO BASIC CANADA INC), and 20 uL MTT solution was added to each well. After 5 minutes on a shaking table at150 rpm to thoroughly mix the MTT into the media, it was incubated (37°C, 5% CO2) for 4 hours to allow the MTT to be metabolized. Formazan (MTT metabolic product) was resuspended in 200 uL DMSO and shaken at 150 rpm for 5 minutes to thoroughly mix the formazan into the solvent. The optical density was measured at 560 nm, and the background was subtracted at 620 nm. Finally, the IC50 of the test compound in comparison to the reference was calculated using the GraphPad Prism software. […]

[2] = system: HT-29 colorectal adenocarcinoma cells; assay: MTT cytotoxicity assay, HT-29; details: MTT; for IC50: mean of three independent experiments ± SD, read-out: IC50 Value HT-29
Method: as §1, §2, §3, §4, §5

[3] = MTT cytotoxicity assay, U-937; details: Homo sapiens, U-937, U937, MTT;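 also: Six-dose MTT colorimetric assay on cell monolayers, formazan absorbance read at 560 nm with 620 nm background removed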
U-937 renal cancer cells = assay: MTT cytotoxicity assay, U-937; details: MTT; for IC50: Homo sapiens, U-937, mean of three independent experiments ± SD, read-out: IC50 Value U-937; for Toxicity %: U937;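 as to all read-outs here: Six-dose MTT colorimetric assay on cell monolayers, formazan absorbance read at 560 nm with 620 nm background removed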
normal Vero cells = assay: MTT cytotoxicity assay, normal Vero cells; details: Vero, MTT;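 also: monolayers exposed to two-fold dilutions in 2% serum medium, MTT added for 4 h, formazan in DMSO read at 560 nm minus 620 nm, controls given medium alone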
[4] = MTT cytotoxicity assay, normal Vero cells; details: African green monkey, normal Vero cells, MTT;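 also: monolayers exposed to two-fold dilutions in 2% serum medium, MTT added for 4 h, formazan in DMSO read at 560 nm minus 620 nm, controls given medium alone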
[5] = Homo sapiens, HT-29, HT29, 0.312 uM
[6] = Homo sapiens, HT-29, HT29, 0.625 uM
[7] = Homo sapiens, HT-29, HT29, 1.25 uM
[8] = Homo sapiens, HT-29, HT29, 2.5 uM
[9] = Homo sapiens, HT-29, HT29, 5 uM
[10] = Homo sapiens, HT-29, HT29, 10 uM

SMILES: Cn1c(SCC(=O)c2ccc([N+](=O)[O-])cc2)nc(=O)c(/N=C(/CBr)c2ccc([N+](=O)[O-])cc2)c1N [Compound 8, (E)-6-Amino-5-((2-bromo-1-(4-nitrophenyl)ethylidene)amino)-1-methyl-2-((2-(4-nitrophenyl)-2-oxoethyl)thio)pyrimidin-4(1H)-one]
- IC50 ([1]; Homo sapiens): 2310 ± 60 nM
- viability at 0.312 µM ([1]; Homo sapiens, 0.312 uM): 97.6%
- viability at 0.625 µM ([1]; Homo sapiens, 0.625 uM): 95.3%
- viability at 1.25 µM ([1]; Homo sapiens, 1.25 uM): 83.8%
- viability at 2.5 µM ([1]; Homo sapiens, 2.5 uM): 43.7%
- viability at 5 µM ([1]; Homo sapiens, 5 uM): 35.9%
- viability at 10 µM ([1]; Homo sapiens, 10 uM): 35.4%
- Toxicity % ([1]; 0.312 uM): 2.394%
- Toxicity % ([1]; 0.625 uM): 4.743%
- Toxicity % ([1]; 1.25 uM): 16.18%
- Toxicity % ([1]; 2.5 uM): 56.29%
- Toxicity % ([1]; 5 uM): 64.1%
- Toxicity % ([1]; 10 uM): 64.58%
- Toxicity % ([2]; HT29, 0.312 uM): 0.08613%
- Toxicity % ([2]; HT29, 0.625 uM): 0.1292%
- Toxicity % ([2]; HT29, 1.25 uM): 0.5599%
- Toxicity % ([2]; HT29, 2.5 uM): 0.3876%
- Toxicity % ([2]; HT29, 5 uM): 50.34%
- Toxicity % ([2]; HT29, 10 uM): 77.91%
- viability at 0.312 µM [2, 5]: 99.9%
- viability at 0.625 µM [2, 6]: 99.9%
- viability at 1.25 µM [2, 7]: 99.4%
- viability at 2.5 µM [2, 8]: 99.6%
- viability at 5 µM [2, 9]: 49.7%
- viability at 10 µM [2, 10]: 22.1%
- IC50 ([2]; Homo sapiens, HT-29): 6480 ± 80 nM
- viability at 0.312 µM [3]: 99.6%
- viability at 0.625 µM [3]: 99.3%
- viability at 1.25 µM [3]: 99.9%
- viability at 2.5 µM [3]: 99.8%
- viability at 5 µM [3]: 79.6%
- viability at 10 µM [3]: 27.6%
- IC50 (U-937 renal cancer cells): 7770 ± 40 nM
- Toxicity % (U-937 renal cancer cells; 0.312 uM): 0.3813%
- Toxicity % (U-937 renal cancer cells; 0.625 uM): 0.6536%
- Toxicity % (U-937 renal cancer cells; 1.25 uM): 0.05447%
- Toxicity % (U-937 renal cancer cells; 2.5 uM): 0.2179%
- Toxicity % (U-937 renal cancer cells; 5 uM): 20.42%
- Toxicity % (U-937 renal cancer cells; 10 uM): 72.39%

SMILES: CN(Cc1cnc2nc(N)nc(N)c2n1)c1ccc(C(=O)N[C@@H](CCC(=O)O)C(=O)O)cc1 [Methotrexate, reference compound]
- IC50 ([1]; Homo sapiens): 2790 ± 60 nM
- viability at 0.078 µM ([1]; Homo sapiens, 0.078 uM): 99.9%
- viability at 0.156 µM ([1]; Homo sapiens, 0.156 uM): 99.7%
- viability at 0.312 µM ([1]; Homo sapiens, 0.312 uM): 99.6%
- viability at 0.625 µM ([1]; Homo sapiens, 0.625 uM): 99.8%
- viability at 1.25 µM ([1]; Homo sapiens, 1.25 uM): 81.5%
- viability at 2.5 µM ([1]; Homo sapiens, 2.5 uM): 42.4%
- viability at 5 µM ([1]; Homo sapiens, 5 uM): 19.5%
- viability at 10 µM ([1]; Homo sapiens, 10 uM): 11.8%
- Toxicity % ([1]; 0.078 uM): 0.0883%
- Toxicity % ([1]; 0.156 uM): 0.2649%
- Toxicity % ([1]; 0.312 uM): 0.3532%
- Toxicity % ([1]; 0.625 uM): 0.2208%
- Toxicity % ([1]; 1.25 uM): 18.45%
- Toxicity % ([1]; 2.5 uM): 57.62%
- Toxicity % ([1]; 5 uM): 80.53%
- Toxicity % ([1]; 10 uM): 88.17%
- Toxicity % ([2]; HT29, 0.078 uM): 0.5016%
- Toxicity % ([2]; HT29, 0.156 uM): 0.912%
- Toxicity % ([2]; HT29, 0.312 uM): 0.228%
- Toxicity % ([2]; HT29, 0.625 uM): 26.95%
- Toxicity % ([2]; HT29, 1.25 uM): 66.94%
- Toxicity % ([2]; HT29, 2.5 uM): 89.83%
- Toxicity % ([2]; HT29, 5 uM): 97.45%
- Toxicity % ([2]; HT29, 10 uM): 97.58%
- viability at 0.078 µM ([2]; Homo sapiens, HT-29, HT29, 0.078 uM): 99.5%
- viability at 0.156 µM ([2]; Homo sapiens, HT-29, HT29, 0.156 uM): 99.1%
- viability at 0.312 µM [2, 5]: 99.8%
- viability at 0.625 µM [2, 6]: 73.1%
- viability at 1.25 µM [2, 7]: 33.1%
- viability at 2.5 µM [2, 8]: 10.2%
- viability at 5 µM [2, 9]: 2.55%
- viability at 10 µM [2, 10]: 2.42%
- IC50 ([2]; Homo sapiens, HT-29): 990 ± 20 nM
- viability at 0.078 µM ([3]; 0.078 uM): 99.9%
- viability at 0.156 µM ([3]; 0.156 uM): 99.9%
- viability at 0.312 µM [3]: 98.9%
- viability at 0.625 µM [3]: 96.9%
- viability at 1.25 µM [3]: 47.5%
- viability at 2.5 µM [3]: 31.5%
- viability at 5 µM [3]: 8.38%
- viability at 10 µM [3]: 7.63%
- IC50 (U-937 renal cancer cells): 1220 ± 20 nM
- Toxicity % (U-937 renal cancer cells; 0.078 uM): 0.1004%
- Toxicity % (U-937 renal cancer cells; 0.156 uM): 0.0502%
- Toxicity % (U-937 renal cancer cells; 0.312 uM): 1.104%
- Toxicity % (U-937 renal cancer cells; 0.625 uM): 3.112%
- Toxicity % (U-937 renal cancer cells; 1.25 uM): 52.46%
- Toxicity % (U-937 renal cancer cells; 2.5 uM): 68.47%
- Toxicity % (U-937 renal cancer cells; 5 uM): 91.62%
- Toxicity % (U-937 renal cancer cells; 10 uM): 92.37%
- Toxicity % (normal Vero cells; 0.312 uM): 0.3046%
- Toxicity % (normal Vero cells; 0.625 uM): 0.04352%
- Toxicity % (normal Vero cells; 1.25 uM): 0.7398%
- Toxicity % (normal Vero cells; 2.5 uM): 2.698%
- Toxicity % (normal Vero cells; 5 uM): 12.45%
- Toxicity % (normal Vero cells; 10 uM): 49.78%
- IC50 ([4]; mean of three independent experiments ± SD, read-out: In Vitro Cytotoxicity against Normal Cells IC50 Value, Vero Cells): 10200 ± 300 nM
- viability at 0.312 µM ([4]; Vero, 0.312 uM): 99.7%
- viability at 0.625 µM ([4]; Vero, 0.625 uM): 100%
- viability at 1.25 µM ([4]; Vero, 1.25 uM): 99.3%
- viability at 2.5 µM ([4]; Vero, 2.5 uM): 97.3%
- viability at 5 µM ([4]; Vero, 5 uM): 87.6%
- viability at 10 µM ([4]; Vero, 10 uM): 50.2%

From article PMC10535864, “Novel Aminopyrimidine-2,4-diones, 2-Thiopyrimidine-4-ones, and 6-Arylpteridines as Dual-Target Inhibitors of BRD4/PLK1: Design, Synthesis, Cytotoxicity, and Computational Studies” (Pharmaceuticals, 2023)
